# Results: US12351570B2 (MERCK PATENT GMBH, priority 2018, dated 2025)
# Tested on: MDA-MB-231 cells
# Experiment: Extracellular lactate production inhibition after 4 h, MDA-MB-231
# Conditions: Homo sapiens, MDA-MB-231
row,SMILES,IC50
1,"O=C(O)c1ccc(C#Cc2ccccc2NS(=O)(=O)c2ccc3c(c2)Cc2ccccc2-3)cc1 [Compound 87, 4-{2-[2-(9H-fluorene-2-sulfonamido)phenyl]ethynyl}benzoic acid]",100 to 1000 nM
2,"O=C(O)c1ccc(C#Cc2ccccc2NS(=O)(=O)N2CCc3ccccc3C2)cc1 [Compound 90, 4-(2-{2-[(1,2,3,4-tetrahydroisoquinoline-2-sulfonyl)amino]phenyl}ethynyl)benzoic acid]",1000 to 100000 nM
3,"O=C(O)c1ccc(C#Cc2ccccc2NS(=O)(=O)C2Cc3ccccc3C2)cc1 [Compound 93, 4-{2-[2-(2,3-dihydro-1H-indene-2-sulfonamido)phenyl]ethynyl}benzoic acid]",1000 to 100000 nM
4,"O=C(O)c1ccc(C#Cc2ccccc2NS(=O)(=O)c2c(Cl)nc3sccn23)cn1 [Compound 98, 5-[2-(2-{6-chloroimidazo[2,1-b][1,3]thiazole-5-sulfonamido}phenyl)-ethynyl]pyridine-2-carboxylic acid]",1000 to 100000 nM
5,"Cc1ccc2cccnc2c1S(=O)(=O)Nc1ccccc1C#Cc1ccc(C(=O)O)nc1C [Compound 100, 6-methyl-5-{2-[2-(7-methylquinoline-8-sulfonamido)phenyl]ethynyl}pyridine-2-carboxylic acid]",1000 to 100000 nM
6,"Cc1cc(C#Cc2ccccc2NS(=O)(=O)c2c(C)ccc3cccnc23)cnc1C(=O)O [Compound 102, 3-methyl-5-{2-[2-(7-methylquinoline-8-sulfonamido)phenyl]ethynyl}pyridine-2-carboxylic acid]",10 to 100 nM
7,"O=C(O)c1ccc(C#Cc2ccccc2NS(=O)(=O)N2CCC3CCCCC3C2)cn1 (stereo not drawn) [Compound 103, 5-(2-{2-[(decahydroisoquinoline-2-sulfonyl)amino]phenyl}ethynyl)pyridine-2-carboxylic acid]",100 to 1000 nM
8,"Cc1ccc2cccnc2c1S(=O)(=O)Nc1c(F)cccc1C#Cc1ccc(C(=O)O)nc1 [Compound 106, 5-{2-[3-fluoro-2-(7-methylquinoline-8-sulfonamido)phenyl]ethynyl}pyridine-2-carboxylic acid]",1000 to 100000 nM
9,"Cc1cc(C(=O)O)ncc1C#Cc1ccccc1NS(=O)(=O)c1c(C)ccc2cccnc12 [Compound 107, 4-methyl-5-{2-[2-(7-methylquinoline-8-sulfonamido)phenyl]ethynyl}pyridine-2-carboxylic acid]",10 to 100 nM
10,"Cc1ccc2cccnc2c1S(=O)(=O)Nc1ccc(F)cc1C#Cc1ccc(C(=O)O)nc1 [Compound 112, 5-{2-[5-fluoro-2-(7-methylquinoline-8-sulfonamido)phenyl]ethynyl}pyridine-2-carboxylic acid]",10 to 100 nM
11,"O=CN(Cc1ccc2ccccc2c1)c1ccccc1C#Cc1ccc(C(=O)O)nc1 [Compound 115, 5-[2-(2-{N-[(naphthalen-2-yl)methyl]formamido}phenyl)ethynyl]-pyridine-2-carboxylic acid]",100 to 1000 nM
12,"CC(=O)N(Cc1ccc2ccccc2c1)c1ccccc1C#Cc1ccc(C(=O)O)nc1 [Compound 116, 5-[2-(2-{N-[(naphthalen-2-yl)methyl]acetamido}phenyl)ethynyl]-pyridine-2-carboxylic acid]",100 to 1000 nM
13,"Cc1cc(C#Cc2ccccc2NS(=O)(=O)c2ccc3c(c2)Cc2ccccc2-3)cnc1C(=O)O [Compound 118, 5-{2-[2-(9H-fluorene-2-sulfonamido)phenyl]ethynyl}-3-methylpyridine-2-carboxylic acid]",100 to 1000 nM
14,"CS(=O)(=O)N(Cc1ccc2ccccc2n1)c1ccccc1C#Cc1ccc(C(=O)O)nc1 [Compound 120, 5-[2-(2-{N-[(quinolin-2-yl)methyl]methanesulfonamido}phenyl)ethynyl]pyridine-2-carboxylic acid]",1000 to 100000 nM
15,"CC(=O)N(Cc1ccc2ccccc2n1)c1ccccc1C#Cc1ccc(C(=O)O)nc1 [Compound 121, 5-[2-(2-{N-[(quinolin-2-yl)methyl]acetamido}phenyl)ethynyl]-pyridine-2-carboxylic acid]",100 to 1000 nM
16,"COC(=O)c1cc(C)c(C#Cc2ccccc2NS(=O)(=O)c2ccc(OC)c3cccnc23)cn1 [Compound 122, methyl 5-{2-[2-(5-methoxyquinoline-8-sulfonamido)phenyl]ethynyl}-4-methylpyridine-2-carboxylate]",10 to 100 nM

# Continued, values first:
row,IC50,SMILES
1,100 to 1000 nM,O=C(O)c1ccc(C#Cc2ccccc2NS(=O)(=O)c2csc3ccccc23)cc1 [Compound 83]
2,1000 to 100000 nM,"O=C(O)c1ccc(C#Cc2ccccc2NS(=O)(=O)c2cccc3ccccc23)c2ccccc12 [Compound 84, 4-{2-[2-(naphthalene-1-sulfonamido)phenyl]ethynyl}-naphthalene-1-carboxylic acid]"
3,1000 to 100000 nM,"Cc1ccccc1-c1cccc(S(=O)(=O)Nc2ccccc2C#Cc2ccc(C(=O)O)cc2)c1 [Compound 86, 4-[2-(2-{2′-methyl-[1,1′-biphenyl]-3-sulfonamido}phenyl)ethynyl]benzoic acid]"
4,100 to 1000 nM,"Cc1cc(C(=O)O)ncc1C#Cc1ccccc1NS(=O)(=O)c1cccc2ccccc12 [Compound 88, 4-methyl-5-{2-[2-(naphthalene-1-sulfonamido)phenyl]ethynyl}pyridine-2-carboxylic acid]"
5,1000 to 100000 nM,"O=C(O)c1ccc(C#Cc2ccccc2NS(=O)(=O)c2cc3ccccc3o2)cn1 [Compound 89, 5-{2-[2-(1-benzofuran-2-sulfonamido)phenyl]ethynyl}pyridine-2-carboxylic acid]"
6,1000 to 100000 nM,"COc1cnc2cc(S(=O)(=O)Nc3ccccc3C#Cc3ccc(C(=O)O)nc3)ccc2n1 [Compound 91, 5-{2-[2-(2-methoxyquinoxaline-6-sulfonamido)phenyl]ethynyl}pyridine-2-carboxylic acid]"
7,10 to 100 nM,"O=C(O)c1ccc(C#Cc2ccccc2NS(=O)(=O)c2ccc3c(c2)Cc2ccccc2-3)cn1 [Compound 92, 5-{2-[2-(9H-fluorene-2-sulfonamido)phenyl]ethynyl}pyridine-2-carboxylic acid]"
8,1000 to 100000 nM,"Cc1ccccc1-c1cccc(S(=O)(=O)Nc2ccccc2C#Cc2ccc(C(=O)O)nc2)c1 [Compound 94, 5-[2-(2-{2′-methyl-[1,1′-biphenyl]-3-sulfonamido}phenyl)ethynyl]pyridine-2-carboxylic acid]"
9,1000 to 100000 nM,"O=C(O)c1ccc(C#Cc2ccccc2NS(=O)(=O)c2cccc(Br)c2)cn1 [Compound 95, 5-{2-[2-(3-bromobenzenesulfonamido)phenyl]-ethynyl}pyridine-2-carboxylic acid]"
10,100 to 1000 nM,"O=C(O)c1ccc(C#Cc2ccccc2NS(=O)(=O)c2cccc(-c3ccccc3)c2)cn1 [Compound 96, 5-[2-(2-{[1,1′-biphenyl]-3-sulfonamido}phenyl)ethynyl]pyridine-2-carboxylic acid]"
11,100 to 1000 nM,"Cc1c(S(=O)(=O)Nc2ccccc2C#Cc2ccc(C(=O)O)nc2)ccc2ccccc12 [Compound 97, 5-{2-[2-(1-methylnaphthalene-2-sulfonamido)phenyl]ethynyl}pyridine-2-carboxylic acid]"
12,1000 to 100000 nM,"O=C(O)c1ccc(C#Cc2ccccc2NS(=O)(=O)c2ccc(Cl)c3nonc23)cn1 [Compound 99, 5-{2-[2-(7-chloro-2,1,3-benzoxadiazole-4-sulfonamido)phenyl]ethynyl}pyridine-2-carboxylic acid]"
13,1000 to 100000 nM,"O=C(O)c1ccc(C#Cc2c(F)cccc2NS(=O)(=O)c2cccc3cccnc23)cn1 [Compound 101, 5-{2-[2-fluoro-6-(quinoline-8-sulfonamido)phenyl]ethynyl}pyridine-2-carboxylic acid]"
14,100 to 1000 nM,"O=C(O)c1ccc(C#Cc2ccccc2NS(=O)(=O)c2csc3ccccc23)cn1 [Compound 104, 5-{2-[2-(1-benzothiophene-3-sulfonamido)phenyl]ethynyl}pyridine-2-carboxylic acid]"
15,1000 to 100000 nM,"O=C(O)c1ccc(C#Cc2ccccc2NS(=O)(=O)c2cccc(N3CCOCC3)c2)cn1 [Compound 105, 5-(2-{2-[3-(morpholin-4-yl)benzenesulfonamido]phenyl}-ethynyl)pyridine-2-carboxylic acid]"
16,10 to 100 nM,"O=C(O)c1ccc(C#Cc2ccccc2NS(=O)(=O)c2cccc3c2oc2ccccc23)cn1 [Compound 108, 5-[2-(Dibenzofuran-4-sulfonylamino)-phenylethynyl]-pyridine-2-carboxylic acid (5-[2-(2-{8-oxatricyclo[7.4.0.0^2,7]trideca-1(9),2,4,6,10,12-hexaene-6-sulfonamido}phenyl)ethynyl]pyridine-2-carboxylic acid)]"
17,100 to 1000 nM,"O=C(O)c1ccc(C#Cc2ccccc2NS(=O)(=O)c2cccc3scnc23)cn1 [Compound 109, 5-{2-[2-(1,3-benzothiazole-4-sulfonamido)phenyl]ethynyl}pyridine-2-carboxylic acid]"
18,10 to 100 nM,"COc1ccc(S(=O)(=O)Nc2ccccc2C#Cc2cnc(C(=O)O)cc2C)c2ncccc12 [Compound 110, 5-{2-[2-(5-methoxyquinoline-8-sulfonamido)phenyl]ethynyl}-4-methylpyridine-2-carboxylic acid]"
19,100 to 1000 nM,"O=C(O)c1ccc(C#Cc2cc(F)ccc2NS(=O)(=O)c2cccc3cccnc23)cn1 [Compound 111, 5-{2-[5-fluoro-2-(quinoline-8-sulfonamido)phenyl]ethynyl}pyridine-2-carboxylic acid]"
20,1000 to 100000 nM,"O=C(O)c1ccc(C#Cc2ccccc2NS(=O)(=O)N2CCc3ccccc3C2)cn1 [Compound 113, 5-(2-{2-[(1,2,3,4-tetrahydroisoquinoline-2-sulfonyl)amino]phenyl}ethynyl)pyridine-2-carboxylic acid]"
21,100 to 1000 nM,"COc1ccccc1-c1cccc(S(=O)(=O)Nc2ccccc2C#Cc2ccc(C(=O)O)nc2)c1 [Compound 114, 5-[2-(2-{2′-methoxy-[1,1′-biphenyl]-3-sulfonamido}phenyl)ethynyl]pyridine-2-carboxylic acid]"
22,100 to 1000 nM,"COc1ccc2cccc(S(=O)(=O)Nc3ccccc3C#Cc3ccc(C(=O)O)nc3)c2n1 [Compound 117, 5-{2-[2-(2-methoxyquinoline-8-sulfonamido)phenyl]ethynyl}pyridine-2-carboxylic acid]"
23,100 to 1000 nM,"Cc1cc(C(=O)O)ncc1C#Cc1ccccc1NS(=O)(=O)c1ccc2c(c1)Cc1ccccc1-2 [Compound 119, 5-{2-[2-(9H-fluorene-2-sulfonamido)phenyl]ethynyl}-4-methylpyridine-2-carboxylic acid]"
